Test results taken from patent US9649373B2, “Neoseptins: small molecule adjuvants” (THE SCRIPPS RESEARCH INSTITUTE, priority 2013, dated 2017).
Each block holds one compound with its values, some of them ahead of it.

Assays:
TLR4 [1] = biological target: T1, TLR4 (Mus musculus, UniProt Q9JHF9+Q9QUK6); assay: TNF-α production in macrophages from mice with disabling germline mutations or knockouts of TLRs and downstream signaling proteins; format: cell-based; set-up: normalized TNF-α production in macrophages from mice; endogenous in cells; host or cells: macrophages from wild-type and mutant/knockout mice; details: for Genes on which induced TNF-α production depends / mechanism of signaling: mutant or knockout mouse macrophages, 5 ng/ml LPS or 50 mM neoseptin-3 (FIG. 1)
T1 sequence (Q9QUK6 26-835): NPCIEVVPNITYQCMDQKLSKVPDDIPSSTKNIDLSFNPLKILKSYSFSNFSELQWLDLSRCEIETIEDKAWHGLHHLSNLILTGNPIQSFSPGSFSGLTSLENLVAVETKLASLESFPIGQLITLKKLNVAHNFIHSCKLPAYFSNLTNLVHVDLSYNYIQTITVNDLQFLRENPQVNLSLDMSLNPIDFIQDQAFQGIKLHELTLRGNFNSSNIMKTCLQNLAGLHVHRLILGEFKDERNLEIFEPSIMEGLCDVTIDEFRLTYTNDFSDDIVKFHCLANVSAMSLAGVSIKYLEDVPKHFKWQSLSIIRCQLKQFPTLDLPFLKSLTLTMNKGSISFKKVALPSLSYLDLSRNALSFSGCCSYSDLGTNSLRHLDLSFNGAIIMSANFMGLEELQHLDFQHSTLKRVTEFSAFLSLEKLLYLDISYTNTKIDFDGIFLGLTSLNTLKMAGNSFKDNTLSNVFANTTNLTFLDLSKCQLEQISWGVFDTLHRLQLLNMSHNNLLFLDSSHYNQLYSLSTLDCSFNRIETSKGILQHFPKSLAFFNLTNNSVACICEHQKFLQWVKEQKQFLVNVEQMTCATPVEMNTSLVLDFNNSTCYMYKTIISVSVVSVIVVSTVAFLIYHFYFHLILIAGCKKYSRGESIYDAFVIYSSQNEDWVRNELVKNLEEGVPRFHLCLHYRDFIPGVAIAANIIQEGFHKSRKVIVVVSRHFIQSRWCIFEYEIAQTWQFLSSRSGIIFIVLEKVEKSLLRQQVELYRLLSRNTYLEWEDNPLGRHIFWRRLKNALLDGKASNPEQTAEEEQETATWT
T1 sequence (Q9JHF9 19-160): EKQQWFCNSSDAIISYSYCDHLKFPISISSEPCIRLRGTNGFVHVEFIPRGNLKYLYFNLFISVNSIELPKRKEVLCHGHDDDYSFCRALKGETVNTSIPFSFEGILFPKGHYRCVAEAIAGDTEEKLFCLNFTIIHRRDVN
Description: FIG. 1 in two parts as FIG. 1A and FIG. 1B are bar graphs that illustrate an assay of normalized TNF-α production in macrophages from mice containing disabling germline mutations or knockouts of genes encoding TLRs and downstream signaling proteins using 5 ng/ml of LPS or […] neoseptin-3.
(§1) See, (a) mutagenetix.utsouthwestern.edu.; (b) Arnold et al., (2012) ENU-induced phenovariance in mice: Inferences from 587 mutations. BMC Res. Notes. 5, 577-0500-5-577.

TLR4 [2] = biological target: T1, TLR4; assay: Mouse peritoneal macrophage agonist assay (TNF-α ELISA); format: cell-based; set-up: used to inject mice intraperitoneally; endogenous in cells; host or cells: mouse peritoneal exudate cells (thioglycolate-elicited peritoneal macrophages); details: for TLR4 agonist efficacy: relative to neoseptin-1 or LPS; for EC50: read-out: EC50 of dose-response curves, TLR4 agonist activity
Description: Mouse Peritoneal Macrophage Agonist Assay
Three to four days prior to PEC isolation, 3 mL syringes filled with Brewer's thioglycolate medium are used to inject mice intraperitoneally with 1.5-2 mL through a 25-gauge needle.
Immediately prior to isolation, mice are anaesthetized under isofluorane vapour (2-5% v/v, 2% O2).
5 mL syringes filled with sterile PBS are used to recover PECs by lavage through an 18-gauge needle. Once obtained, exudate is added to 5 mL of PEC recovery solution in a 15 mL conical tube, and stored on ice.
Tubes containing exudate are centrifuged for 3 minutes at 1200 rpm in a tabletop centrifuge, and supernatant is replaced with 1-4 mL of PEC medium. Pelleted cells are resuspended by pipeting, and a 10 μL aliquot is taken for cell enumeration.
The concentration of each cell sample is adjusted to 1×10^6 cells/mL using PEC medium, and 100 μL of each sample (1×10^5 cells) is added to a tissue culture-treated 96 well flat-bottomed plate, leaving two columns (11 & 12) unoccupied per plate. Plates are incubated at 37° C./5% CO2 in a humidified incubator for at least 1 hour to permit cells to adhere to the plate, during which time 125-03 solutions are prepared.
Following preincubation of PECs in the 96-well plate, non-adherent PECs are discarded along with residual medium, and 50 μM of compounds to be assayed are added to the cells. Plates are incubated for a further 4 hours.
Conditioned supernatant is collected into another 96 well plate and retained for TNF ELISA Assay. The cells are replaced with 100 μL/well of a 1:4 MTT solution:PEC medium solution (MTT 1 mg/mL final concentration). PEC plates are incubated at 37° C./5% CO2 overnight (about 18 hours). Supernatants are removed and 100 μL DMSO is added to each well. The plate is shaken for 10 minutes and read at 570 nm. This value is used to measure the cytotoxicity of the compounds.
Coat ELISA plate with 100 μL/well of capture antibody in Coating Buffer. Seal the plate and incubate overnight (about 18 hours) at 4° C.
Aspirate wells and wash 4× with 300 μL/well Wash Buffer. Blot plate on absorbent paper to remove residual buffer.
Dilute 1 part 5× concentrated Assay Diluent with 4 parts DI water. Block wells with 200 μL/well of 1× Assay Diluent. Incubate at room temperature for 1 hour or 4° C. overnight (about 18 hours).
Aspirate and wash at twice with Wash Buffer.
Using 1× Assay Diluent to perform 2-fold serial dilutions of the top standards to make the standard curve for a total of 8 points: 1000, 500, 250, 125, 62.5, 31.25, 15.625, 0 pg/ml. Add 100 μL/well of top standard concentration to the appropriate wells. Add 65 μL/well assay diluent plus 35 μL samples to the wells. Seal the plate and incubate at room temperature for 2 hours [or overnight (about 18 hours) at 4° C.]
Aspirate/wash 4 times with wash buffer.
Add 100 μL/well of detection antibody diluted in 1× Assay diluent. Seal the plate and incubate at room temperature for 1 hour.
Aspirate/wash. Repeat for a total of 4 washes.
Add 100 μL/well of Avidin-HRP diluted in 1× Assay diluent. Seal the plate and incubate at room temperature for 30 minutes.
Aspirate and wash. Repeat for a total of 5 washes.
Add 100 μL/well of Substrate Solution to each well. Incubate plate at room temperature for 2-3 minutes.
Add 50 μL/well of Stop Solution, and read plate at 450 nm.

[3] = Overt toxicity on in vivo administration as adjuvant; details: at the maximum doses capable of administration
Description: Thus, a contemplated Compound of Formula I acts as an agonist at the TLR4 receptor in that it binds to the TLR4 receptor of a cell and triggers a response by that cell, thereby mimicking the action of LPS, without the toxic result from using LPS as an adjuvant.
(§2) It is remarkable that such a small molecule can display such exquisite structural selectivity for activating the immune response and to do so in a way that is so mechanistically specific and well-defined. {See, (a) Vogel Clin. Infect. Dis. 30 (Suppl 3):S266-S270 (2000); (b) Guy, Nat. Rev. Microbiol. 5:505-517 (2007); (c) Johnson, Curr. Top. Med. Chem. 8:64-79 (2008); and (d) Persing et al., Trends Microbiol. 10:S32-S37 (2002) and the citations therein for the procedures utilized.]

C57BL/6J mice = assay: In vivo adjuvant effect, intramuscular co-injection with ovalbumin, serum OVA-specific IgG ELISA; set-up: species or system mouse
Description: FIG. 3, in two panels as FIG. 3A and FIG. 3B, are graphs that illustrate ELIZA results for the adjuvant effect of neoseptin-3. In FIG. 3A, adjuvants were mixed with ovalbumin (OVA, 100 μg) and injected intramuscularly into C57BL/6J mice at the indicated doses. Two immunizations were administered with a booster given at 7 days. In FIG. 3B, LPS (0.2 mg/kg), neoseptin-3 (250 mg/kg) or monophosphoryl lipid A from Salmonella minnesota R595 (MPLA) (0.2 mg/kg) were mixed with ovalbumin (OVA, 0, 1, 10, and 100 μg) Serum levels of OVA-specific IgG were measured (ELISA) on indicated days post-immunization.
FIG. 9 is a graph similar to FIG. 3 showing anti-olvalbumin titers at 14 days post immunization using adjuvants with ovalbumin (OVA, 100 μg) and injected intramuscularly into C57BL/6J mice. The adjuvants used were neoseptin-3, LPS, MPLA, and alum in the amounts shown.
as §2, with “utilized.] […]” for “utilized.]”

MD-2 = biological target: T2, MD-2 (UniProt Q9JHF9); assay: Isothermal titration calorimetry binding to MD-2
T2 sequence (Q9JHF9 1-160): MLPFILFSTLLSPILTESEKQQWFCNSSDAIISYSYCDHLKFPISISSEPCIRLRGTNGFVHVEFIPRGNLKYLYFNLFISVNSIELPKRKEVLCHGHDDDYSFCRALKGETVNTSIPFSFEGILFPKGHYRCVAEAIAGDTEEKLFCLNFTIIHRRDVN

[4] = system: type I interferon response; assay: Type I interferon response, release of INF-β / INF-α (FIG. 2); format: cell-based
[5] = system: NF-κB, P38 MAPK, JNK, and Erk signaling pathways; assay: Activation of signaling pathways; format: cell-based
Description: as §1

Genes on which induced TNF-α production depends / mechanism of signaling (TLR4 [1]): established to be TLR4
Compound: N[C@@H](Cc1ccccc1)C(=O)Nc1ccc(C(=O)N[C@@H](CCc2ccccc2)C(=O)O)cc1OCCc1ccc(O)cc1 [neoseptin-1]

Compound: N[C@@H](Cc1ccccc1)C(=O)Nc1ccc(C(=O)N[C@@H](CCc2ccccc2)C(=O)O)cc1CCc1ccc(O)cc1 [MM-1-88]
TLR4 agonist efficacy (TLR4 [2]): significant enhancement in TLR4 agonist efficacy

EC50 (TLR4 [2]): 15 to 25 µM
TLR4 agonist efficacy (TLR4 [2]): nearly matching the efficacy of LPS
Effect of antagonist eritoran on TLR4 agonist activity (TLR4 [2]; with eritoran): blocked by the antagonist eritoran
CD14 dependence of induced TNF-α production (TLR4 [1]; unlike LPS): independent of CD14
Affinity for MD-2 relative to MPLA (MD-2; ITC direct binding): slightly better than that of MPLA itself
Kd (MD-2; ITC, 20 μM neoseptin-3 with 350 μM MD-2): 11.7 µM
Compound: CC(C)(C)OC(=O)[C@H](CCc1ccccc1)NC(=O)c1ccc(N)c(CCc2ccc(O)cc2)c1 [neoseptin-3]
Overt toxicity [3]: does not display the overt toxicity
In vivo adjuvant immune response compared with LPS (C57BL/6J mice; co-injected with ovalbumin, intramuscular (FIG. 3)): more sustained immune response of equal or greater efficacy than LPS
In vivo adjuvant immune response compared with alum (C57BL/6J mice; ovalbumin 100 μg i.m., 14 days post immunization (FIG. 9)): much more robust immune response in vivo than does alum
Genes on which induced TNF-α production depends / mechanism of signaling (TLR4 [1]): dependent on TLR4, MD-2, MyD88, Trif, TRAM, MAL, IRAK4, and IKBKG
Release of INF-β (type I interferon response) compared with LPS [4]: much more effectively stimulates a type I interferon response resulting in the release of INF-β
Activation of signaling pathways [5]: activate the NF-κB, P38 MAPK, JNK, and Erk signaling pathways

EC50 (TLR4 [2]): 15 to 25 µM
TLR4 agonist efficacy (TLR4 [2]): nearly matching the efficacy of LPS
Compound: CC(C)(C)OC(=O)[C@H](CCc1ccccc1)NC(=O)c1ccc(N)c(OCCc2ccc(O)cc2)c1 [neoseptin-4]
